Source: patent publication US9708314B2, “Heterocyclic amide compound” (NISSAN CHEMICAL INDUSTRIES, LTD., priority 2013, dated 2017)

Columns and labels:
Type in all cases: in vivo
Scirpus juncoides = test: Test Example 1: herbicidal activity, application before weed generation in submerged conditions; details: Application herbicide amount 320 g/ha; Seventeenth Table
Summary of the method: (§1)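 Pre-emergence application to water surface of submerged pots (4 cm depth, alluvial soil) on sowing day, with 2.5-leaf rice transplanted; emulsion diluted to g/ha rates. Grown in greenhouse at 25–30 °C; 0–5 herbicidal/crop-effect score after three weeks.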

[1] = tested on: Echinochloa oryzacola Vasing.; test: as above; details: Application herbicide amount 320 g/ha; Seventeenth Table
Summary of the method: as §1

Monochoria vaginalis = test: as above; details: Application herbicide amount 320 g/ha; Seventeenth Table
Summary of the method: as §1

Digitaria ciliaris = test: Test Example 4: herbicidal effect by application to foliage (diluvial soil, plastic box); details: application to foliage, application herbicide amount 320 g/ha
Summary of the method: (§2)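 Plants were grown in sterilized diluvial soil in a greenhouse at 25-30° C for 14 days, then sprayed on stems and leaves with water-diluted emulsion formulation at set rates in g/ha. Weed control and crop injury were scored 3 weeks after treatment on a 0-5 herbicidal-ratio scale, from 0 (≤5%) to 5 (≥90%).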

[2] = tested on: Echinochloa crus-galli var. crus-galli; test: as above; details: application to foliage, application herbicide amount 320 g/ha
Summary of the method: as §2

Veronica persica = test: as above; details: application to foliage, application herbicide amount 320 g/ha
Summary of the method: as §2

Chenopodium album = test: as above; details: application to foliage, application herbicide amount 320 g/ha
Summary of the method: as §2

Apera spica-venti. = test: as above; details: application to foliage, application herbicide amount 320 g/ha
Summary of the method: as §2

Galium spurium = test: as above; details: application to foliage, application herbicide amount 320 g/ha
Summary of the method: as §2

Avena fatua = test: as above; details: application to foliage, application herbicide amount 320 g/ha
Summary of the method: as §2

Abutilon theophrasti = test: as above; details: application to foliage, application herbicide amount 320 g/ha
Summary of the method: as §2

Alopecurus myosuroides = test: as above; details: application to foliage, application herbicide amount 320 g/ha
Summary of the method: as §2

Lolium multiflorum Lam. = test: as above; details: application to foliage, application herbicide amount 320 g/ha
Summary of the method: as §2

Setaria viridis = test: as above; details: application to foliage, application herbicide amount 320 g/ha
Summary of the method: as §2

[3] = tested on: transplanted Oryza sativa; test: Test Example 1: effect on crop, application before weed generation in submerged conditions; details: Application herbicide amount 320 g/ha; Seventeenth Table
Summary of the method: as §1

SMILES | B: Scirpus juncoides (herbicidal effect grade) (Scirpus juncoides) | A: Echinochloa oryzicola Vasing. (herbicidal effect grade) [1] | C: Monochoria vaginalis (herbicidal effect grade) (Monochoria vaginalis) | F (Digitaria ciliaris) herbicidal effect (Digitaria ciliaris) | H (Echinochloa crus-galli var. crus-galli) herbicidal effect [2] | R (Veronica persica) herbicidal effect (Veronica persica) | O (Chenopodium album) herbicidal effect (Chenopodium album) | L (Apera spica-venti.) herbicidal effect (Apera spica-venti.) | Q (Galium spurium) herbicidal effect (Galium spurium) | I (Avena fatua) herbicidal effect (Avena fatua) | M (Abutilon theophrasti) herbicidal effect (Abutilon theophrasti) | J (Alopecurus myosuroides) herbicidal effect (Alopecurus myosuroides) | K (Lolium multiflorum Lam.) herbicidal effect (Lolium multiflorum Lam.) | G (Setaria viridis) herbicidal effect (Setaria viridis) | a: transplanted Oryza sativa (effect on crop grade) [3]
Cc1nnc(NC(=O)c2ccc(C(F)(F)F)n3c(C(C)C)nnc23)o1 [1-004, 3-Isopropyl-N-(5-methyl-1,3,4-oxadiazol-2-yl)-5-(trifluoromethyl)-[1,2,4]triazolo[4,3-a]pyridine-8-carboxamide] | 4 (Herbicidal ratio of 70% or more and less than 90%) | 5 (Herbicidal ratio of 90% or more (almost completely withered)) | 4 (Herbicidal ratio of 70% or more and less than 90%) | 5 (Herbicidal ratio of 90% or more (almost completely withered)) | 5 (Herbicidal ratio of 90% or more (almost completely withered)) | 4 (Herbicidal ratio of 70% or more and less than 90%) | 5 (Herbicidal ratio of 90% or more (almost completely withered)) | 3 (Herbicidal ratio of 40% or more and less than 70%) | 1 (Herbicidal ratio of 5% or more and less than 20%) | 2 (Herbicidal ratio of 20% or more and less than 40%) | 4 (Herbicidal ratio of 70% or more and less than 90%) | 2 (Herbicidal ratio of 20% or more and less than 40%) | 2 (Herbicidal ratio of 20% or more and less than 40%) | 4 (Herbicidal ratio of 70% or more and less than 90%) | 1 (Herbicidal ratio of 5% or more and less than 20%)
CCc1nnc(NC(=O)c2ccc(C(F)(F)F)n3c(C(C)C)nnc23)o1 [1-005] | 4 (Herbicidal ratio of 70% or more and less than 90%) | 5 (Herbicidal ratio of 90% or more (almost completely withered)) | 4 (Herbicidal ratio of 70% or more and less than 90%) | 3 (Herbicidal ratio of 40% or more and less than 70%) | 4 (Herbicidal ratio of 70% or more and less than 90%) | 3 (Herbicidal ratio of 40% or more and less than 70%) | 5 (Herbicidal ratio of 90% or more (almost completely withered)) | 0 (Herbicidal ratio of 5% or less (almost no effect)) | 0 (Herbicidal ratio of 5% or less (almost no effect)) | 1 (Herbicidal ratio of 5% or more and less than 20%) | 4 (Herbicidal ratio of 70% or more and less than 90%) | 0 (Herbicidal ratio of 5% or less (almost no effect)) | 0 (Herbicidal ratio of 5% or less (almost no effect)) | 3 (Herbicidal ratio of 40% or more and less than 70%) | 0 (Herbicidal ratio of 5% or less (almost no effect))
CCC(CC)c1nnc2c(C(=O)Nc3nnc(C)o3)ccc(C(F)(F)F)n12 [1-011] | 4 (Herbicidal ratio of 70% or more and less than 90%) | 5 (Herbicidal ratio of 90% or more (almost completely withered)) | 5 (Herbicidal ratio of 90% or more (almost completely withered)) | 5 (Herbicidal ratio of 90% or more (almost completely withered)) | 5 (Herbicidal ratio of 90% or more (almost completely withered)) | 5 (Herbicidal ratio of 90% or more (almost completely withered)) | 5 (Herbicidal ratio of 90% or more (almost completely withered)) | 2 (Herbicidal ratio of 20% or more and less than 40%) | 2 (Herbicidal ratio of 20% or more and less than 40%) | 1 (Herbicidal ratio of 5% or more and less than 20%) | 5 (Herbicidal ratio of 90% or more (almost completely withered)) | 1 (Herbicidal ratio of 5% or more and less than 20%) | 1 (Herbicidal ratio of 5% or more and less than 20%) | 4 (Herbicidal ratio of 70% or more and less than 90%) | 1 (Herbicidal ratio of 5% or more and less than 20%)
Cc1nnc(NC(=O)c2ccc(C(F)(F)F)n3c(-c4ccccc4)nnc23)o1 [1-012] | 3 (Herbicidal ratio of 40% or more and less than 70%) | 5 (Herbicidal ratio of 90% or more (almost completely withered)) | 4 (Herbicidal ratio of 70% or more and less than 90%) | 3 (Herbicidal ratio of 40% or more and less than 70%) | 4 (Herbicidal ratio of 70% or more and less than 90%) | 4 (Herbicidal ratio of 70% or more and less than 90%) | 5 (Herbicidal ratio of 90% or more (almost completely withered)) | 1 (Herbicidal ratio of 5% or more and less than 20%) | 2 (Herbicidal ratio of 20% or more and less than 40%) | 0 (Herbicidal ratio of 5% or less (almost no effect)) | 3 (Herbicidal ratio of 40% or more and less than 70%) | 0 (Herbicidal ratio of 5% or less (almost no effect)) | 1 (Herbicidal ratio of 5% or more and less than 20%) | 4 (Herbicidal ratio of 70% or more and less than 90%) | 0 (Herbicidal ratio of 5% or less (almost no effect))
Cc1nnc(NC(=O)c2ccc(C(F)(F)F)n3c(Br)nnc23)o1 [1-014] | 4 (Herbicidal ratio of 70% or more and less than 90%) | 5 (Herbicidal ratio of 90% or more (almost completely withered)) | 3 (Herbicidal ratio of 40% or more and less than 70%) | 3 (Herbicidal ratio of 40% or more and less than 70%) | 4 (Herbicidal ratio of 70% or more and less than 90%) | 4 (Herbicidal ratio of 70% or more and less than 90%) | 5 (Herbicidal ratio of 90% or more (almost completely withered)) | 0 (Herbicidal ratio of 5% or less (almost no effect)) | 3 (Herbicidal ratio of 40% or more and less than 70%) | 1 (Herbicidal ratio of 5% or more and less than 20%) | 4 (Herbicidal ratio of 70% or more and less than 90%) | 1 (Herbicidal ratio of 5% or more and less than 20%) | 1 (Herbicidal ratio of 5% or more and less than 20%) | 3 (Herbicidal ratio of 40% or more and less than 70%) | 0 (Herbicidal ratio of 5% or less (almost no effect))
COCc1nnc2c(C(=O)Nc3nnc(C)o3)ccc(C(F)(F)F)n12 [1-015] | 3 (Herbicidal ratio of 40% or more and less than 70%) | 2 (Herbicidal ratio of 20% or more and less than 40%) | 3 (Herbicidal ratio of 40% or more and less than 70%) | 4 (Herbicidal ratio of 70% or more and less than 90%) | 5 (Herbicidal ratio of 90% or more (almost completely withered)) | 5 (Herbicidal ratio of 90% or more (almost completely withered)) | 5 (Herbicidal ratio of 90% or more (almost completely withered)) | 3 (Herbicidal ratio of 40% or more and less than 70%) | 3 (Herbicidal ratio of 40% or more and less than 70%) | 3 (Herbicidal ratio of 40% or more and less than 70%) | 5 (Herbicidal ratio of 90% or more (almost completely withered)) | 1 (Herbicidal ratio of 5% or more and less than 20%) | 1 (Herbicidal ratio of 5% or more and less than 20%) | 3 (Herbicidal ratio of 40% or more and less than 70%) | 0 (Herbicidal ratio of 5% or less (almost no effect))
